# Data reported in patent US20240383941A1, “3-ALPHA SUBSTITUTED 3-BETA-HYDROXY-17-OXIMATED ANDROSTANE COMPOUND FOR MODULATION OF THE ALPHA-3 SUBTYPE OF THE GABAA RECEPTOR” (priority 2021, published 2024).
# Where “and” joins values, the source holds several entries; their conditions need not be identical. Identical values can stand only once. Entries after “also recorded” stand apart in the source; their conditions may differ.
# Tests used:
# [1] = target: T1, GABAA receptor subtype α1β2γ2 (Homo sapiens, UniProt P14867+P47870); experiment: Patch clamp on GABAA receptor subtype α1β2γ2, essentially as described in Example 2; type: cell-based
# T1 construct: expressed in transfected cells
# T1 sequence (P14867 28-456): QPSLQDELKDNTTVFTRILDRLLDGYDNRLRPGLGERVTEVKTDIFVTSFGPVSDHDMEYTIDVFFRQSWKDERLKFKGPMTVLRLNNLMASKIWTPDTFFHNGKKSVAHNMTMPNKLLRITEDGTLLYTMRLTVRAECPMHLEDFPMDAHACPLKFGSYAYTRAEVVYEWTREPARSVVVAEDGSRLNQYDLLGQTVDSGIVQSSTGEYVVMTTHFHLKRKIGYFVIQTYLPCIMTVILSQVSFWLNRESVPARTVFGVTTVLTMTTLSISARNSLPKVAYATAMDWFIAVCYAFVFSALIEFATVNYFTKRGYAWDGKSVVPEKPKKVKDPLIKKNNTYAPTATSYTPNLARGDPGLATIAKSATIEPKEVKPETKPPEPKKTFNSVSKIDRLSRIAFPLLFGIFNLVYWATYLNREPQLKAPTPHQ
# T1 sequence (P47870 25-512 limits assumed): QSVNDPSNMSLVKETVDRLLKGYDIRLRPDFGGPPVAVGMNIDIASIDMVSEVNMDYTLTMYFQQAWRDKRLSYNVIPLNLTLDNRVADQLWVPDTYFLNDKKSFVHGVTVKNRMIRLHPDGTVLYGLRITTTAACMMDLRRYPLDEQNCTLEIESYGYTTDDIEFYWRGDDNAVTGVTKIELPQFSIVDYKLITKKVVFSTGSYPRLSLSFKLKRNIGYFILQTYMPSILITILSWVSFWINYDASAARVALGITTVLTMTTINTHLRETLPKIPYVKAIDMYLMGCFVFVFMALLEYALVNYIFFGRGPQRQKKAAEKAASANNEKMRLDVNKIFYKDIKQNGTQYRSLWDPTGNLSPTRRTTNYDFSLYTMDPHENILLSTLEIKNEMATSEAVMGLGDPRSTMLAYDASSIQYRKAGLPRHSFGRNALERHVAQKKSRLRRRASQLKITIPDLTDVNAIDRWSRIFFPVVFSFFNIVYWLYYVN
# T1 sequence (P18507 40-475 partner): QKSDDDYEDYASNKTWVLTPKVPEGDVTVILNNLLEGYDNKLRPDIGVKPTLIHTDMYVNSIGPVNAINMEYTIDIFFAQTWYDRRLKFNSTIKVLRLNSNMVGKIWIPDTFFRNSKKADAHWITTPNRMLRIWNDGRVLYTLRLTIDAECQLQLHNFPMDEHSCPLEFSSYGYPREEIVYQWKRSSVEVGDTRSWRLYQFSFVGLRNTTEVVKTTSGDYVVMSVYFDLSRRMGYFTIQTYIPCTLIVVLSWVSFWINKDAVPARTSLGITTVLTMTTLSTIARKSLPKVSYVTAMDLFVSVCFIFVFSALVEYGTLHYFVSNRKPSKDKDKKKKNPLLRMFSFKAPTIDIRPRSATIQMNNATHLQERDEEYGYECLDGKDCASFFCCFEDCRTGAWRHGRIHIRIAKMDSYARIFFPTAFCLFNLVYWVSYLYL
# GABAA receptor = settings: table 3 in WO 09/142594; cited from earlier work
# [2] = Weight increase in growing male rats, experiment 1 (5 days IV); type: in vivo, Male Wistar rats
# Procedure: (§1) Animals: Male Wistar rats were kept in group cages, with three animals per cage, from delivery and throughout the period of experiments. The individual animals were marked so that they could be identified throughout the experiment duration. The animals weight an average of 152 g upon arrival. A reversed light dark (12:12 h) cycle was used with the dark period onset at 0600 hrs. Altogether fifty-six (56) rats were used in this study (experiment 1+2). The animals were delivered from the breeder Taconic (Denmark). The study protocol was approved by the Regional Ethics Committee of Umea University, Sweden.
# (§2) Feeding: Standard chow and water were available ad libitum. A reversed 12-h dark-light cycle with lights off at 10.00 am and lights on at 22.00 pm was used. For identification, the rats were marked with a permanent marker on the tail. To avoid the endogenous allopregnanolone fluctuations that are present in the estrous cycle of female rats, male rats were chosen (Frye et al. 2000). The animals were allowed to acclimatize for at least 3 weeks before start of the experimental sessions. During this period, the rats were repeatedly handled and allowed habituation to the new environment and to all new procedures, to minimize stress during the experiments.
# (§3) After 14 days of triad housing, handling and injection training of the animals, the animals were treated for 5 days with IV injections in experiment 1 and 10 days with a daily subcutaneous injection of the assigned treatment in experiment 2 (Table 3 and 4). The injections were given at 08.00 every morning. The animals were weighed the day before onset of the treatment and at the last day of injection i.e. on the 5th or 10th day of treatment. Weight was taken at the time of the last injection. […] The results are shown in FIG. 2 (experiment 1) and FIG. 3 (experiment 2), respectively.
# [3] = target: T2, human α3β3γ2L GABAA receptor subtype (Homo sapiens, UniProt P28472+P34903); experiment: Whole-cell patch clamp (Dynaflow) on HEK-293 cells expressing the GABAA receptor α3β3γ2L subtype; type: cell-based; settings: for 100 μM GABA mediated current response, area under curve, Mean ± SEM: 1 μM steroid + 100 μM GABA, relative to 100 μM GABA (set as 0%); for reduction (block) of the THDOC enhanced effect / effect on GABAs own effect on current response / reduction of the GABA effect: 100 μM GABA; for reduction (block) of the THDOC enhanced effect / reduction of the GABA effect: stated as size of reduction; for activation of the receptor / own effect in absence of GABA: steroid alone, in absence of GABA and/or THDOC
# T2 construct: expressed in transfected cells; host or cells: HEK-293 cells (wild-type cells obtained from Pasteur Institute, Paris), permanently transfected
# T2 sequence (P34903 29-492): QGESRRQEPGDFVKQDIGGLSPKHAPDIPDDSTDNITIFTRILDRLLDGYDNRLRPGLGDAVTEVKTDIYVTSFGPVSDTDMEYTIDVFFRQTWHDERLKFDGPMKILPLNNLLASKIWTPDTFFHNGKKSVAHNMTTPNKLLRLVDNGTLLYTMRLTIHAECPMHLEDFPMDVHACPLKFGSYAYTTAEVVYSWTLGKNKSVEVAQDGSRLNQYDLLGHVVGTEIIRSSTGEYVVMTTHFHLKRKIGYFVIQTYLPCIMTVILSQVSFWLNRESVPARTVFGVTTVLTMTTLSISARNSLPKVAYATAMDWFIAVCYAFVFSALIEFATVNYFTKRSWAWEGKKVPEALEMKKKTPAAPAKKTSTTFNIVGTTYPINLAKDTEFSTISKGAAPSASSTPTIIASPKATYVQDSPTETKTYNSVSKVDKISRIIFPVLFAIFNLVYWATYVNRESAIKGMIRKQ
# T2 sequence (P28472 26-473): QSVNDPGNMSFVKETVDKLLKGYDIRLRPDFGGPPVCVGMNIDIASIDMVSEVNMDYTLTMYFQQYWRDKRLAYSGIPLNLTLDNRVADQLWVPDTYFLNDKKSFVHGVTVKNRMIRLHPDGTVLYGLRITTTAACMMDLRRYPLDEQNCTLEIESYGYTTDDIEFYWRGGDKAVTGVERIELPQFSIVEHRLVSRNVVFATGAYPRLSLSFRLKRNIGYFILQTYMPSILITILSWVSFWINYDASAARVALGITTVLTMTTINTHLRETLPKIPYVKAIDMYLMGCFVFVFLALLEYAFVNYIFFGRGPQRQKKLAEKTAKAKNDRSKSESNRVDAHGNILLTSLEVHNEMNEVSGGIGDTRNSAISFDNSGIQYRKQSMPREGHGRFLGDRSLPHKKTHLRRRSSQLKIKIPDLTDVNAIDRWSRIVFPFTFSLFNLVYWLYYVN
# T2 sequence (P18507 40-475 partner): as the sequence (P18507 40-475 partner) above
# Procedure: Aim: To investigate the effect of 3α-ethynyl-3β-hydroxy-5α-androstan-17-methoxime and 3α-ethyl-3β-hydroxy-5α-androstan-17-oxime, respectively, on the GABAA receptor function. Experiments were performed both in absence and in presence of the GAMS tetrahydrodeoxycorticosterone (THDOC), in the absence and presence of GABA. In these tests the protocol was optimized to be similar to the physiological conditions in the synaptic cleft.
# Cell culture: Wild-type HEK-293 cells passage 4 (obtained from Pasteur Institute, Paris, France), permanently transfected with cDNA to express the human α3β3γ2L GABAA receptor subtype, were seeded in cell bind culture flasks, grown and maintained at the temperature of +37° C., with a gas mixture of 5% CO2 in the cell incubator. The transfected cells were used for patch-clamp experiments minimum one passages after defrosting and 3-5 days after seeding. The α3β3γ2L cells were seeded for maximal 15 times.
# Electrophysiological recordings: Whole cell patch technique was used to record whole-cell currents from the cells. Patch electrodes were pulled from 1.5 mm O.D., 0.86 mm I.D. borosilicate capillary glass without filament. […] After compensation for liquid junction potential a steady holding potential of −17 mV was used in all experiments. The cells were added to the chip (see below) and kept in EC solution (see above). EC solution with or without steroids and GABA were applied by the Dynaflow™ system (see below). All experiments were performed at room temperature (21-23° C.).
# Dynaflow™ system: Dynaflow™ system with Resolve chips was used for all patch-clamp experiments including steroids. The Resolve chip consists of a glass chip enclosed by a PEEK plastic top part and a supporting plastic bottom part. Both wells and channels are glass coated. The channel width is 150 μm and the height 50 μm. The well volume is 150 μL. Run time at the flow rate of 26 μL/min was 90 min. The pump settings were as follows: BD Plastikpak™ 2 mL syringe with inner diameter of 8.1 mm was used. The syringe pump flow rate for Resolve chip was 26 μL/min.
# The Resolve chip allows synchronized control of switching between 16 experimental solutions. Laminar flow at each solution outlet of the microfluidic chip prevents mixing, and a computer-controlled stage motor is used to move the chip relative to the patch pipette, allowing for relatively rapid solution exchange around the membrane patch. PClamp 9.0 software, DigiData 1322A converter and AxonPatch 200B were used to generate command pulses and collect data. Clampfit 10.3, Prism 6.0 and excel were used for data analyzes.
# GABA and steroids: GABA was dissolved in EC-solution by ultrasound for about 20 minutes at maximal 40° C. to the concentration of 10 mM.
# THDOC was dissolved in ethanol 99.5% to the concentration of 0.2 mM and tested steroids dissolved in ethanol 99.5% to the concentration of 2 mM (with ultrasound). The final ethanol concentration was 0.1% in all end-solutions, including the wash solution (EC) and the solution with GABA alone. End-solutions are the solutions added into the wells of the chip.
# Protocol: The binding site of THDOC is in the […] region of the receptor. To achieve stable response, the cell was exposed to steroid (THDOC and/or steroid) 20 seconds before GABA application. The standard protocol as follow: 20 s preincubation of steoids (100 nM THDOC alone or in combination with one of 1 μM 3α-ethynyl-3β-hydroxy-5α-androstan-17-methoxime and 3α-ethyl-3β-hydroxy-5α-androstan-17-oxime), followed by 2 s application of 100 μM GABA±steroids (100 nM THDOC alone or in combination with one of 1 μM 3α-ethynyl-3β-hydroxy-5α-androstan-17-methoxime and 3α-ethyl-3β-hydroxy-5α-androstan-17-oxime). Washout time was 120 s.
# Steroid (3α-ethynyl-3β-hydroxy-5α-androstan-17-methoxime or 3α-ethyl-3β-hydroxy-5α-androstan-17-oxime)+THDOC, in absence of GABA, were therefore not analyzed. […]
# [4] = Weight increase in growing male rats, experiment 2 (10 days s.c.); type: in vivo, Male Wistar rats
# Procedure: as §1, §2, §3
# [5] = 2 mg/kg IV daily for 5 days, in 10% 2-Hydroxypropyl-β-cyclodextrin
# [6] = 1 mg/kg s.c. + 5 mg/kg progesterone + 10 μg/kg 17β-estradiol
smiles,measurement,setting,value
C#C[C@]1(O)CC[C@@]2(C)[C@@H](CC[C@@H]3[C@@H]2CC[C@]2(C)C(=O)CC[C@@H]32)C1 [3α-ethynyl-3β-hydroxy-5α-androstan-17-one],"Effect against GABAs agonistic effect, α1β2γ2",[1]; 1 μM steroid,−1.9 ± 2.4%
same,"Antagonism of 100 nM THDOC-enhancement, α1β2γ2",[1]; 1 μM steroid + THDOC,No effect
same,effect as a GAMSA or GAMS,GABAA receptor,no effect
same,Mean weight increase since arrival,[2]; [5],97.43 g
same,Mean weight increase since treatment start,[2]; [5],11.86 g
same,increase in weight compared to vehicle treated groups,"[2]; 2 mg/kg IV, 5 days",significantly lower
same,"Antagonism of 100 nM THDOC-enhancement, α3β3γ2","[3]; 1 μM steroid + THDOC, Table 6","−166 ± 19.9%,"
same,"Effect against GABAs agonistic effect, α3β3γ2","[3]; 1 μM steroid, Table 6","−46 ± 1.3%,"
same,weight difference compared to vehicle,[4]; [6],-33 ± 4.4 g
same,weight difference versus E+P control rats,[4]; [6],-23.9 ± 4.4 g
same,weight difference versus E+P control rats,[4]; 5 mg/kg s.c. + 5 mg/kg progesterone + 10 μg/kg 17β-estradiol,-20.4 ± 5.2 g
same,weight difference after 10 days of treatment compared to vehicle,[4]; s.c.,over 20%
"C#C[C@]1(O)CC[C@]2(C)C3CC[C@]4(C)/C(=N\OC)CCC4C3CC[C@H]2C1 (stereo partly drawn) [GR3053, 3α-ethynyl-3β-hydroxy-5α-androstan-17-methoxime]","100 μM GABA mediated current response, area under curve, Mean ± SEM",[3],−20 ± 2.1%
same,"100 μM GABA mediated current response, area under curve, Mean ± SEM",[3]; listed as 3α-ethynyl-3β-hydroxy-5α-androstan-17-methoxime,−20%
same,reduction (block) of the THDOC enhanced effect,"[3]; 1 μM steroid, 100 nM THDOC",> 100% and 190%
same,effect on GABAs own effect on current response,[3]; 1 μM steroid,some antagonistic effect; also recorded: partial antagonistic effect
same,reduction of the GABA effect,[3]; 1 μM steroid,20%
same,activation of the receptor / own effect in absence of GABA,[3],None
"CC[C@]1(O)CC[C@]2(C)C3CC[C@]4(C)/C(=N\O)CCC4C3CC[C@H]2C1 (stereo partly drawn) [GR3055, 3α-ethyl-3β-hydroxy-5α-androstan-17-oxime]","100 μM GABA mediated current response, area under curve, Mean ± SEM",[3],"−18 ± 3.4%,"
same,"100 μM GABA mediated current response, area under curve, Mean ± SEM",[3]; listed as 3α-ethyl-3β-hydroxy-5α-androstan-17-oxime,−18%
same,reduction (block) of the THDOC enhanced effect,"[3]; 1 μM steroid, 100 nM THDOC",57%
same,effect on GABAs own effect on current response,[3]; 1 μM steroid,partial antagonistic effect
same,reduction of the GABA effect,[3]; 1 μM steroid,18%
same,activation of the receptor / own effect in absence of GABA,[3],None
"C[C@]12CC[C@@H](O)C[C@@H]1CC[C@@H]1[C@@H]2CC[C@]2(C)[C@@H](C(=O)CO)CC[C@@H]12 [THDOC, 3α, 21-dihydroxy-5α-pregnan-20-one, reference compound]",activation of the α3β3γ2L GABAA receptor by THDOC alone,"[3]; 100 nM THDOC, in absence of GABA",did not activate
